Measured values taken from US6509002B1, “Diagnostic agent for diabetes” (priority 1997, dated 2003).

Test: ^13C breath test, intravenous administration (femoral vein), diabetic vs normal rats
Format: in vivo, rat
Source text: As test animals, male Sprague-Dawley strain (SD) neonatal rats were purchased from Nippon Charles River K. K. together with their lactating rats. […] Insulin secretion-deficient type diabetes was generated by administering streptozotocin (STZ) to neonatal rats (“Saibokogaku (Cell Engineering)”, Extra Issue, medical Experiment Manual Series, Strategy for Study of Diabetes, edited by Susumu Seino and Yoshikazu Oka, published by Shujunsha Co., Japan). STZ was subcutaneously administered to 2-day-old rats at a dose of 90 mg/kg. […] Two days after the administration, blood was collected by cardiac puncture, and the casual blood sugar level of each rat was measured with Terumo […] (blood sugar measurement set). […] Breath tests were carried out according to the method as described in (2)-1 or (2)-2 below on diabetic rats prepared in (1) above (8-10-week-old) and normal rats (8-10-week-old). […] A blood sample was collected from the tail vein, and its sugar level was determined using Terumo […] (blood sugar measurement set). […] Fine Science Tools Inc.).

[1] = diabetic rats, 10 mg/kg from the femoral vein, Example 25
[2] = normal rats, 10 mg/kg from the femoral vein, Example 25
[3] = diabetic rats, 30 mg/kg from the femoral vein, Example 32
[4] = normal rats, 30 mg/kg from the femoral vein, Example 32
[5] = diabetic rats, 50 mg/kg from the femoral vein, Example 14
[6] = normal rats, 50 mg/kg from the femoral vein, Example 14
[7] = diabetic rats, 10 mg/kg from the femoral vein, Example 15
[8] = normal rats, 10 mg/kg from the femoral vein, Example 15
[9] = diabetic rats, 70 mg/kg from the femoral vein, Example 30
[10] = normal rats, 70 mg/kg from the femoral vein, Example 30
[11] = diabetic rats, 20 mg/kg from the femoral vein, Example 12
[12] = normal rats, 20 mg/kg from the femoral vein, Example 12
[13] = diabetic rats (n=2), 20 mg/kg from the femoral vein, Example 18
[14] = normal rats, 20 mg/kg from the femoral vein, Example 18
[15] = diabetic rats, 10 mg/kg from the femoral vein, Example 34
[16] = normal rats, 10 mg/kg from the femoral vein, Example 34
[17] = diabetic rats, 5 mg/kg from the femoral vein, Example 28
[18] = normal rats, 5 mg/kg from the femoral vein, Example 28
[19] = diabetic rats, 10 mg/kg from the femoral vein, Example 9
[20] = normal rats, 10 mg/kg from the femoral vein, Example 9
[21] = diabetic rats, 20 mg/kg from the femoral vein, Example 22
[22] = normal rats, 20 mg/kg from the femoral vein, Example 22
[23] = diabetic rats, 50 mg/kg from the femoral vein, Example 35
[24] = normal rats, 50 mg/kg from the femoral vein, Example 35
[25] = diabetic rats, 20 mg/kg from the femoral vein, Example 11
[26] = normal rats, 20 mg/kg from the femoral vein, Example 11

In the case of `N[C@@H](CC(=O)O)[13C](=O)O` [1-^13C-aspartic acid], the “slope from 3 to 8 min after the administration” value [1] is reported as −53.79±11.42 ‰/5 min, the “time course of Δ^13C values (‰)” value [1] is reported as “increased sharply up to about 2 min after the administration of 1-^13C-aspartic acid, but thereafter decreased gradually up to 20 min” and the “Δ^13C value (‰) at 3 min after the administration” value [1] is reported as 172.66±8.65 ‰. The “slope from 3 to 8 min after the administration” value [2] was −8.13±10.84 ‰/5 min, the “time course of Δ^13C values (‰)” value [2] was “increased sharply up to about 2 min after the administration of 1-^13C-aspartic acid, but thereafter decreased gradually up to 20 min” and the “Δ^13C value (‰) at 3 min after the administration” value [2] was 126.56±13.45 ‰.
With `O=[13C](CO)[C@@H](O)[C@H](O)[C@H](O)CO` [2-^13C-fructose] the “Δ^13C value (‰) at 20 min after the administration” value (“Δ^13C value (‰) at 20 min” for short) (rat, in vivo) was 94.68 ‰, the “slope from 2 to 6 min after the administration” value (rat, in vivo, 100 mg/kg) was 21.4±1.84 ‰/4 min and the “Δ^13C value (‰) at 20 min” value (rat, in vivo, 100 mg/kg) was 58.75±2.73 ‰.
For `CCCCCCC[13C](=O)O` [1-^13C-octanoic acid], the “slope from 10 to 20 min after the administration” value (from here on “slope from 10 to 20 min”) [3] was −20.55±7.75 ‰/10 min, the “time course of Δ^13C values (‰)” value [3] was “increased sharply up to about 5 min after the administration, but thereafter decreased gradually up to 20 min” and the “slope from 10 to 20 min” value [4] was −4.76±4.41 ‰/10 min. For the same molecule, the “time course of Δ^13C values (‰)” value [4] was “increased sharply up to about 5 min after the administration of 1-^13C-octanoic acid, and thereafter remained at an almost constant level up to 20 min”.
For `N=C(N)NCCC[C@H](N)[13C](=O)O` [1-^13C-arginine], the “slope from 2 to 7 min after the administration” value (“slope from 2 to 7 min” below) [5] was 146.90±18.97 ‰/5 min, the “time course of Δ^13C values (‰)” value [5] was “increased up to about 12 min after the administration, but thereafter decreased gradually up to 20 min” and the “Δ^13C value (‰) at 10 min after the administration” value (“Δ^13C value (‰) at 10 min” for short) [5] was 192.40±30.23 ‰. For the same molecule, the “slope from 2 to 7 min” value [6] was 75.02±10.01 ‰/5 min, the “time course of Δ^13C values (‰)” value [6] was “continued increasing up to 20 min” and the “Δ^13C value (‰) at 10 min” value [6] was 111.68±14.15 ‰.
For `N[C@@H](Cc1c[nH]c2ccccc12)[13C](=O)O` [1-^13C-tryptophan], the “slope from 10 to 15 min after the administration” value [7] was 4.46±0.49 ‰/5 min, the “time course of Δ^13C values (‰)” value [7] was “continued increasing up to 20 min” and the “Δ^13C value (‰) at 20 min” value [7] was 19.42±4.37 ‰. For the same molecule, the “slope from 10 to 15 min after the administration” value [8] was 1.20±0.93 ‰/5 min, the “time course of Δ^13C values (‰)” value [8] was “continued increasing up to 20 min” and the “Δ^13C value (‰) at 20 min” value [8] was 8.10±0.77 ‰.
With `CCCCCCCC/C=C\CCCCCCC[13C](=O)O` [1-^13C-oleic acid] the “slope from 10 to 20 min” value [9] was −12.79±3.72 ‰/10 min, the “time course of Δ^13C values (‰)” value [9] was “increased sharply up to about 8 min after the administration, but thereafter decreased gradually up to 20 min” and the “Δ^13C value (‰) at 8 min after the administration” value [9] was 132.93±7.09 ‰. The “slope from 10 to 20 min” value [10] was 13.61±4.58 ‰/10 min, the “time course of Δ^13C values (‰)” value [10] was “continued increasing up to 20 min” and the “Δ^13C value (‰) at 8 min after the administration” value [10] was 86.51±14.72 ‰.
For `Cl.NCCC[13C@H](N)[13C](=O)O` [1,2-^13C-ornithine hydrochloride], the “slope from 2 to 7 min” value [11] was 87.79±12.93 ‰/5 min, the “time course of Δ^13C values (‰)” value [11] was “increased up to about 14 min after the administration, and thereafter remained at an almost constant level up to 20 min” and the “Δ^13C value (‰) at 10 min” value [11] was 155.70±17.99 ‰. For the same molecule, the “slope from 2 to 7 min” value [12] was 53.56±4.72 ‰/5 min, the “time course of Δ^13C values (‰)” value [12] was “continued increasing up to 20 min” and the “Δ^13C value (‰) at 10 min” value [12] was 100.71±5.97 ‰.
With `NC(=O)CC[C@H](N)[13C](=O)O` [1-^13C-glutamine] the “slope from 1 to 2 min after the administration” value [13] was 105.59 ‰/min, the “Δ^13C value (‰) at 5 min after the administration” value (from here on “Δ^13C value (‰) at 5 min”) [13] was 168.18 ‰ and the “time course of Δ^13C values (‰)” value (diabetic rats, 20 mg/kg from the femoral vein, Example 18) was “increased sharply up to about 3 min after the administration, but thereafter decreased gradually up to 20 min”. The “slope from 1 to 2 min after the administration” value [14] was 69.88±11.51 ‰/min, the “time course of Δ^13C values (‰)” value [14] was “increased sharply up to about 3 min after the administration of 1-^13C-glutamine, and thereafter increased gradually up to 20 min” and the “Δ^13C value (‰) at 5 min” value [14] was 107.17±15.42 ‰.
In the case of `C[13C](=O)OCC(CO[13C](C)=O)O[13C](C)=O` [1,1,1-^13C-triacetin], the “slope from 6 to 10 min after the administration” value [15] is reported as −6.26±1.50 ‰/4 min, the “time course of Δ^13C values (‰)” value [15] is reported as “increased sharply up to about 8 min after the administration, but thereafter decreased gradually up to 20 min” and the “Δ^13C value (‰) at 4 min after the administration” value [15] is reported as 41.97±2.79 ‰. The “slope from 6 to 10 min after the administration” value [16] was −0.83±0.90 ‰/4 min, the “time course of Δ^13C values (‰)” value [16] was “continued increasing up to 20 min” and the “Δ^13C value (‰) at 4 min after the administration” value [16] was 27.29±2.31 ‰.
For `O=C(O)CC(O)(C[13C](=O)O)[13C](=O)O` (centres unmarked) [1,6-^13C-citric acid], the “slope from 10 to 14 min after the administration” value [17] was −10.45±1.30 ‰/4 min, the “Δ^13C value (‰) at 20 min” value [17] was 54.38±3.34 ‰ and the “slope from 10 to 14 min after the administration” value [18] was −5.81±0.92 ‰/4 min. The “Δ^13C value (‰) at 20 min” value [18] was 67.49±1.82 ‰.
For `CC(C)C[C@H](N)[13C](=O)O` [1-^13C-leucine], the “Δ^13C value (‰) at 5 min” value (diabetic rats (n=2), 10 mg/kg from the femoral vein, Example 24) was 52.89±10.83 ‰ and the “Δ^13C value (‰) at 5 min” value (normal rats, 10 mg/kg from the femoral vein, Example 24) was 42.56±2.43 ‰.
For `C[C@H](N)[13C](=O)O` [1-^13C-alanine], the “slope from 5 to 15 min after the administration” value [19] was −52.09±19.38 ‰/10 min, the “time course of Δ^13C values (‰)” value [19] was “sharply increased up to 4 min after the administration of 1-^13C-alanine, but thereafter decreased gradually up to 20 min” and the “Δ^13C value (‰) at 10 min” value [19] was 161.35±6.670 ‰. For the same molecule, the “slope from 5 to 15 min after the administration” value [20] was −18.12±7.28 ‰/10 min, the “time course of Δ^13C values (‰)” value [20] was “sharply increased up to 4 min after the administration of 1-^13C-alanine, but thereafter decreased gradually up to 20 min” and the “Δ^13C value (‰) at 10 min” value [20] was 132.16±3.53 ‰.
For `NC[13C](=O)O` [1-^13C-glycine], the “time course of Δ^13C values (‰)” value [21] was “increased sharply up to about 5 min after the administration, but thereafter decreased gradually up to 20 min”, the “Δ^13C value (‰) at 7 min after the administration” value [21] was 156.62±10.83 ‰ and the “time course of Δ^13C values (‰)” value [22] was “increased sharply up to about 5 min after the administration of 1-^13C-glycine, remained at an almost constant level up to about 12 min, but thereafter decreased gradually up to 20 min”. For the same molecule, the “Δ^13C value (‰) at 7 min after the administration” value [22] was 119.06±12.19 ‰.
For `O=[13CH][C@H](O)[C@@H](O)[C@@H](O)[C@H](O)CO` [1-^13C-galactose], the “time course of Δ^13C values (‰)” value (rat, in vivo, 100 mg/kg) was “continued increasing up to 30 min”.
With `OC[13CH](O)CO` [2-^13C-glycerol] the “slope from 2 to 7 min” value [23] was 62.72±3.22 ‰/5 min, the “time course of Δ^13C values (‰)” value [23] was “increased sharply up to about 8 min after the administration, and thereafter increased gradually up to 20 min” and the “Δ^13C value (‰) at 20 min” value [23] was 112.44±5.12 ‰. The “slope from 2 to 7 min” value [24] was 16.99±1.61 ‰/5 min, the “time course of Δ^13C values (‰)” value [24] was “continued increasing gradually up to 20 min after the administration of 2-^13C-glycerol, and thereafter remained at an almost constant level” and the “Δ^13C value (‰) at 20 min” value [24] was 54.77±4.23 ‰.
With `CC(C)[C@H](N)[13C](=O)O` [1-^13C-valine] the “slope from 2 to 4 min after the administration” value [25] was 38.55±3.15 ‰/2 min, the “time course of Δ^13C values (‰)” value [25] was “sharply increased up to about 6 min after the administration of 1-^13C-valine, and thereafter increased gradually up to 20 min” and the “Δ^13C value (‰) at 5 min” value [25] was 73.54±7.30 ‰. The “slope from 2 to 4 min after the administration” value [26] was 24.17±2.32 ‰/2 min, the “time course of Δ^13C values (‰)” value [26] was “sharply increased up to about 6 min after the administration of 1-^13C-valine, and thereafter increased gradually up to 20 min” and the “Δ^13C value (‰) at 5 min” value [26] was 45.99±5.62 ‰.
For `N[C@@H](CCC(=O)O)[13C](=O)O` [1-^13C-glutamic acid], the “time course of Δ^13C values (‰)” value (rat, in vivo, 10 mg/kg) was “increased sharply up to about 4 min after the administration of 1-^13C-glutamic acid, but thereafter decreased gradually up to 20 min”.
With `O=C([13CH2]O)[C@@H](O)[C@H](O)[C@H](O)CO` [1-^13C-fructose] the “time course of Δ^13C values (‰)” value (rat, in vivo, 100 mg/kg) was “continued increasing up to 20 min”.
